Assay results as given in patent publication US20220251105A1, “METHODS OF TREATING A MK2-MEDIATED DISORDER” (Celgene CAR LLC, priority 2019, published 2022).
Read-outs that look alike come from different tables or passages of the source.

What was measured:
CYP3A4/5 = assay: in vitro assessment of CYP inhibition; type: in vitro ADME, human; settings: in vitro assessments
Description: (§1) In vitro and in vivo studies were conducted to characterize the absorption, PK, distribution, and metabolism of Compound 1. […] Additionally, plasma samples from single dose PK studies in mice and monkeys were evaluated for circulating metabolites.

[1] = system: osteoclast differentiation; assay: osteoclast differentiation in vitro; type: cell-based
[2] = toxicokinetics, 28-day mouse study; type: in vivo; settings: mice; for AUC / Cmax: Crl:CD1 (ICR), mouse, plasma, po;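 on AUCLST: AUC to the last measurable time point (AUClast)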
Excerpt: There were no notable sex-related differences in Compound 1 exposure.
Additionally, toxicokinetic animals received the vehicle or compound in the same manner and dose levels as the main study groups.

Mouse/CD-1 = assay: exploratory single dose and 14-day repeat-dose toxicity study in mice; type: in vivo
Description: A single oral dose study with a 14-day repeat-dose phase was conducted in male and female mice. 250 mg/kg was selected as the highest dose for the repeat dose portion of the study.

[3] = single oral dose pharmacokinetics in CD-1 mice; type: in vivo, mouse
Description: as §1

TNF-α secretion by PBMCs = assay: ex vivo studies of PBMCs from healthy volunteers; type: cell-based, human; settings: at TE of 60%
[4] = steady-state plasma exposure in mouse disease models; type: in vivo; settings: 3 mg/kg
healthy adult subjects = assay: Phase 1 first in human study, safety and tolerability; type: in vivo
Description: The 2 sentinel subjects (chosen according to a randomization scheme) were dosed on Day 1. After at least 24 hours, the safety profile was acceptable to the Investigator (based on, at minimum, adverse events [AEs], concomitant medications and procedures, and any other important clinical observations), and the remainder of the cohort was dosed according to the randomization schedule.
The same total daily dose was then administered for the remainder of the planned treatment schedule (Days 2 to 14, inclusive).
Results. This study was a Phase 1, three-part study with a double-blind, placebo-controlled, single ascending dose (SAD) phase, a double-blind multiple ascending dose (MAD) phase, and an open-label cross-over food effect phase. The study enrolled a total of 97 healthy adult subjects.

[5] = female, 15 mg/kg/day, Study Day 1, female, 15 mg/kg/day
[6] = female, 15 mg/kg/day, Study Day 21, female, 15 mg/kg/day
[7] = female, 100 mg/kg/day, Study Day 1, female, 100 mg/kg/day
[8] = female, 100 mg/kg/day, Study Day 21, female, 100 mg/kg/day
[9] = female, 750 mg/kg/day, Study Day 1, female, 750 mg/kg/day
[10] = female, 750 mg/kg/day, Study Day 21, female, 750 mg/kg/day
[11] = male, 15 mg/kg/day, Study Day 1, male, 15 mg/kg/day
[12] = male, 15 mg/kg/day, Study Day 21, male, 15 mg/kg/day
[13] = male, 100 mg/kg/day, Study Day 1, male, 100 mg/kg/day
[14] = male, 100 mg/kg/day, Study Day 21, male, 100 mg/kg/day
[15] = male, 750 mg/kg/day, Study Day 1, male, 750 mg/kg/day
[16] = male, 750 mg/kg/day, Study Day 21, male, 750 mg/kg/day
[17] = CD-1, plasma, mouse, female, single oral 15 mg/kg
[18] = CD-1, plasma, mouse, female, single oral 100 mg/kg
[19] = CD-1, plasma, mouse, male, single oral 15 mg/kg
[20] = CD-1, plasma, mouse, male, single oral 100 mg/kg

## CCOCc1cnc(Cl)nc1Oc1ccc2c(ccc3sc4c(c32)NC[C@@H](C)NC4=O)n1 [Compound 1]
CYP3A4/5
  inhibition of intestinal CYP3A4/5: potential for direct and time-dependent inhibition
[1]
  osteoclast differentiation: inhibit osteoclast differentiation in vitro
[2]; [5]
  AUC: 5360 ng·h/mL
  Cmax: 2980 ng/mL
[2]; [6]
  AUC: 5980 ng·h/mL
  Cmax: 2970 ng/mL
[2]; [7]
  AUC: 40100 ng·h/mL
  Cmax: 14500 ng/mL
[2]; [8]
  AUC: 32800 ng·h/mL
  Cmax: 12300 ng/mL
[2]; [9]
  AUC: 198000 ng·h/mL
  Cmax: 50300 ng/mL
[2]; [10]
  AUC: 135000 ng·h/mL
  Cmax: 23200 ng/mL
[2]; [11]
  AUC: 4410 ng·h/mL
  Cmax: 2930 ng/mL
[2]; [12]
  AUC: 4460 ng·h/mL
  Cmax: 2420 ng/mL
[2]; [13]
  AUC: 29200 ng·h/mL
  Cmax: 13900 ng/mL
[2]; [14]
  AUC: 24900 ng·h/mL
  Cmax: 11700 ng/mL
[2]; [15]
  AUC: 211000 ng·h/mL
  Cmax: 29800 ng/mL
[2]; [16]
  AUC: 92800 ng·h/mL
  Cmax: 19400 ng/mL
[2]; Day 1, 15 to 750 mg/kg/day
  dose proportionality of systemic exposure (AUCLST): approximately dose-proportional manner
[2]; Day 21, 15 to 750 mg/kg/day
  dose proportionality of systemic exposure (AUCLST): less than dose-proportional manner
Mouse/CD-1; mice, 15, 75, 250 mg/kg/day
  Findings, 14-day phase: no compound related findings were identified
Mouse/CD-1; mice, at 750 mg/kg
  Findings, single dose phase: Cold to touch and shaking
[3]; [17]
  AUC: 5170 ng·h/mL
  AUC(0-inf): 5250 ng·h/mL
  Cmax: 1980 ng/mL
[3]; CD-1, plasma, mouse, female, single oral 15 mg/kg, read-out: tmax
  Tmax: 30 min
[3]; [18]
  AUC: 28200 ng·h/mL
  AUC(0-inf): 28400 ng·h/mL
  Cmax: 8080 ng/mL
[3]; CD-1, plasma, mouse, female, single oral 100 mg/kg, read-out: tmax
  Tmax: 15 min
[3]; [19]
  AUC: 2870 ng·h/mL
  AUC(0-inf): 3040 ng·h/mL
  Cmax: 1270 ng/mL
[3]; CD-1, plasma, mouse, male, single oral 15 mg/kg, read-out: tmax
  Tmax: 15 min
[3]; [20]
  AUC: 19200 ng·h/mL
  AUC(0-inf): 19200 ng·h/mL
  Cmax: 6600 ng/mL
[3]; CD-1, plasma, mouse, male, single oral 100 mg/kg, read-out: tmax
  Tmax: 30 min
[3]; both sexes, CD-1, mouse, plasma, po, mice, doses in the range 15 to 375 mg/kg
  bioavailability: 22 to 51%
[3]; both sexes, CD-1, mouse, plasma, mice, oral dosing, read-out: time to maximum plasma concentration (tmax)
  Tmax: 15 to 60 min
[3]; mouse, female, single oral 15 mg/kg
  F: 51%
[3]; mouse, female, single oral 100 mg/kg
  F: 41%
[3]; mouse, male, single oral 15 mg/kg
  F: 23%
[3]; mouse, male, single oral 100 mg/kg
  F: 22%
TNF-α secretion by PBMCs
  inhibition of TNF-α secretion: approximately 70%
[4]; BALB/c, mouse, CAIA in BALB/c mice
  AUC: 626 ng·h/mL
[4]; BALB/c, mouse, imiquimod ear swelling in BALB/c mice
  AUC: 917 ng·h/mL
[4]; C57B1/6, mouse, mannan PsA in C57B1/6 mice
  AUC: 467 ng·h/mL
Healthy adult subjects; Part 1, 400-mg dose level, 2 TEAEs in 2 subjects
  most common TEAEs suspected related (skin and subcutaneous tissue disorder): mild, transient, pruritic, erythematous rash without other organ involvement
Healthy adult subjects; Part 1, single doses 3 mg to 400 mg
  severe TEAEs or serious adverse events: no severe TEAEs or serious adverse events (SAEs)
Healthy adult subjects; Part 1, single doses 3 mg to 400 mg, of the 22 total TEAEs
  TEAEs suspected to be related to Compound 1: 5
Healthy adult subjects; Part 2, 120 mg
  ALT elevations, other 2 subjects: less than 2 × above the upper limit of normal
Healthy adult subjects; Part 2, 120 mg, one subject, Day 17
  peak ALT elevation: 2.3 ×ULN
Healthy adult subjects; Part 2, 10 to 150 mg daily for 14 days, of the 42 total TEAEs
  TEAEs suspected to be related to Compound 1: 9
Healthy adult subjects; Part 2, 120-mg dose cohort, of 6 subjects on active treatment
  subjects with increase in serum transaminase levels (ALT) above ULN: 3
Healthy adult subjects; Part 2, 150-mg dose cohort, 14-day dosing period
  transaminase level changes: no transaminase level changes were observed in any subject
Healthy adult subjects; single dose up to 400 mg, 14 days up to 150 mg
  tolerability: well tolerated
